# How the values were obtained:
# in vivo = assay: in vivo
# Method: The control article was 0.9% saline.
# Blood was collected (via a jugular vein cannula inserted during surgery) during the 10-day post-dose phase for pharmacokinetics, hematology, clinical chemistry, glucose, and morning cortisol analysis.
# Because of the variability in the volume of the sinus in sheep, the total volume varied from 5 to 15 mL. Doses calculated by body weight and body surface area (BSA) are also shown.
# [1] = Recovery of force-degraded fluticasone propionate spiked into placebo and of active cream, HPLC; assay type: physicochemical
# [2] = Recovery of force-degraded MFM spiked into placebo cream and of active cream (0.1% MFM), HPLC; assay type: physicochemical; conditions: for Peak Area MFM / Peak Area RRT = 0.61 / Peak Area RRT = 0.71 / Peak Area RRT = 0.79 / Peak Area RRT = 0.87 / Peak Area RRT = 0.96 / Peak Area RRT = 1.07 / Peak Area RRT = 1.12 / Total MFM-Related Area: Spiked into placebo
# Method: MFM neat and degraded materials were spiked into placebo cream (lot #2020-11-01) to investigate potential partitioning effects and peak interferences and to compare spiked and active cream samples by the procedure in Table 50 with the exception that for acid, base and peroxide degradations, the additions of HCl, NaOH and peroxide were calculated accordingly.
# Percent recovery of Force-Degraded Materials Spiked into Placebo is provided in Table 51 below while recovery of active cream formulation (0.1% MFM) is provided in Table 52 below.
# [3] = Forced degradation of neat mometasone furoate monohydrate, percent recovery and degradant peaks by HPLC; assay type: physicochemical; set-up: key to Degradant peak, RRT 0.61 with respect to MFM / Degradant peak, RRT 0.71 with respect to MFM / Degradant peak, RRT 0.79 with respect to MFM / Degradant peak, RRT 0.87* with respect to MFM / Degradant peak, RRT 1.07 with respect to MFM / Degradant peak, RRT 1.12* with respect to MFM / Degradant peak, RRT 0.96* with respect to MFM: ≥0.05% Peak Area; detected above the 0.05% cutoff; “—” indicates no peak; conditions: for Degradant peak, RRT 0.87* with respect to MFM / Degradant peak, RRT 0.96* with respect to MFM / Degradant peak, RRT 1.12* with respect to MFM: related substance; for Actual Amount: neat MFM
# Method: Degradation and impurity analysis of the creams was performed using HPLC. The following parameters were used for the analysis of mometasone furoate monohydrate.
# Neat mometasone furoate monohydrate (MFM) material was degraded and analyzed for potential chromatographic interference. Briefly, neat MFM was exposed to various conditions to induce degradation including heat (60° C./5 days), light (6 inches away from a white bench light for 5 days), acid (0.1N HCl for 1 hour followed by neutralization with 0.1N NaOH), base (0.1N NaOH for 1 hour followed by neutralization with 0.1N HCl), and oxidation (3% H2O2 for 1 hour). All samples including the degraded samples, control samples (dissolved in HPLC-grade methanol), and the reference solution were analyzed.
# Percent recovery is provided in Table 48 below for each condition.
# Table 49 below provides the Relative Retention Times (RRTs) and detection ≥0.05% for the samples.
# [4] = degraded neat material, 0.1N HC1
# [5] = degraded neat material, 0.1N NaOH
# [6] = degraded neat material, 3% H2O2
# [7] = degraded neat material, 60° C. for 5 days
# [8] = degraded neat material, White light for 5 days
structure (smiles),measurement,setting,value
"CCC(=O)O[C@]1(C(=O)CO)[C@@H](C)C[C@H]2[C@@H]3CCC4=CC(=O)C=C[C@]4(C)[C@@]3(F)[C@@H](O)C[C@@]21C [Betamethasone 17-propionate, betamethasone 17-propionate]",plasma levels detected through,in vivo; in vivo,3 days post-dose
same,Tmax,"in vivo; sheep plasma, intra-sinus 0.05% betamethasone dipropionate cream, median (range), n = 6",0.5 (0.5-2) hr
same,AUCinf,"in vivo; sheep, in vivo",59.3 ± 44.8 ng·h/mL
same,AUClast,"in vivo; sheep, in vivo",58.3 ± 44.7 ng·h/mL
same,Apparent half-life,"in vivo; sheep, in vivo",9.5 ± 2.2 h
same,Cmax,"in vivo; sheep, in vivo","8,279 ± 3,376 pg/ml"
CCC(=O)O[C@]1(C(=O)SCF)[C@H](C)C[C@H]2[C@@H]3C[C@H](F)C4=CC(=O)C=C[C@]4(C)[C@@]3(F)[C@@H](O)C[C@@]21C [Fluticasone Propionate 0.005%],Difference with Placebo (neat vs spiked recovery),[1]; 0.1N HC1 (1 hour),6.03%
same,Difference with Placebo (neat vs spiked recovery),[1]; 0.1N NaOH (1 hour),0.19%
same,Difference with Placebo (neat vs spiked recovery),[1]; 3% H2O2 (1 hour),4.03%
same,Difference with Placebo (neat vs spiked recovery),[1]; 60° C. (3 days),1.09%
same,Difference with Placebo (neat vs spiked recovery),"[1]; Control (undegraded FP, kept at 4 C.)",0.2-1.1% ^
same,Difference with Placebo (neat vs spiked recovery),[1]; White light (3 days),2.71%
"C[C@@H]1C[C@H]2[C@@H]3CCC4=CC(=O)C=C[C@]4(C)[C@@]3(Cl)[C@@H](O)C[C@]2(C)[C@@]1(OC(=O)c1ccco1)C(=O)CCl [MFM, mometasone furoate monohydrate]",degradation due to the cream making process,"[2]; 0.1% MFM cream, HPLC",no apparent degradation
same,Peak Area MFM,[2]; Acid,116.720
same,Peak Area RRT = 0.61,[2]; Acid,no peaks
same,Peak Area RRT = 0.71,[2]; Acid,no peaks
same,Peak Area RRT = 0.79,[2]; Acid,no peaks
same,Peak Area RRT = 0.87,[2]; Acid,no peaks
same,Peak Area RRT = 0.96,[2]; Acid,2.964
same,Peak Area RRT = 1.07,[2]; Acid,0.05
same,Peak Area RRT = 1.12,[2]; Acid,0.353
same,Total MFM-Related Area,[2]; Acid,120.087
same,Peak Area MFM,[2]; Base,2.991
same,Peak Area RRT = 0.61,[2]; Base,0.097
same,Peak Area RRT = 0.71,[2]; Base,0.143
same,Peak Area RRT = 0.79,[2]; Base,0.433
same,Peak Area RRT = 0.87,[2]; Base,5.187
same,Peak Area RRT = 0.96,[2]; Base,14.967
same,Peak Area RRT = 1.07,[2]; Base,55.374
same,Peak Area RRT = 1.12,[2]; Base,10.016
same,Total MFM-Related Area,[2]; Base,89.208
same,Peak Area MFM,[2]; Control,125.120
same,Peak Area RRT = 0.61,[2]; Control,no peaks
same,Peak Area RRT = 0.71,[2]; Control,no peaks
same,Peak Area RRT = 0.79,[2]; Control,no peaks
same,Peak Area RRT = 0.87,[2]; Control,no peaks
same,Peak Area RRT = 0.96,[2]; Control,0.171
same,Peak Area RRT = 1.07,[2]; Control,no peaks
same,Peak Area RRT = 1.12,[2]; Control,no peaks
same,Total MFM-Related Area,[2]; Control,125.291
same,Peak Area MFM,[2]; Heat,122.536
same,Peak Area RRT = 0.61,[2]; Heat,no peaks
same,Peak Area RRT = 0.71,[2]; Heat,no peaks
same,Peak Area RRT = 0.79,[2]; Heat,no peaks
same,Peak Area RRT = 0.87,[2]; Heat,no peaks
same,Peak Area RRT = 0.96,[2]; Heat,0.161
same,Peak Area RRT = 1.07,[2]; Heat,no peaks
same,Peak Area RRT = 1.12,[2]; Heat,no peaks
same,Total MFM-Related Area,[2]; Heat,122.697
same,Peak Area MFM,[2]; Light,123.671
same,Peak Area RRT = 0.61,[2]; Light,no peaks
same,Peak Area RRT = 0.71,[2]; Light,no peaks
same,Peak Area RRT = 0.79,[2]; Light,no peaks
same,Peak Area RRT = 0.87,[2]; Light,no peaks
same,Peak Area RRT = 0.96,[2]; Light,0.152
same,Peak Area RRT = 1.07,[2]; Light,no peaks
same,Peak Area RRT = 1.12,[2]; Light,no peaks
same,Total MFM-Related Area,[2]; Light,123.823
same,Peak Area MFM,[2]; Peroxide,128.187
same,Peak Area RRT = 0.61,[2]; Peroxide,no peaks
same,Peak Area RRT = 0.71,[2]; Peroxide,no peaks
same,Peak Area RRT = 0.79,[2]; Peroxide,no peaks
same,Peak Area RRT = 0.87,[2]; Peroxide,no peaks
same,Peak Area RRT = 0.96,[2]; Peroxide,0.176
same,Peak Area RRT = 1.07,[2]; Peroxide,no peaks
same,Peak Area RRT = 1.12,[2]; Peroxide,no peaks
same,Total MFM-Related Area,[2]; Peroxide,128.363
same,"Degradant peak, RRT 0.61 with respect to MFM",[3]; [4],detected (≥0.05% Peak Area; detected above the 0.05% cutoff)
same,"Degradant peak, RRT 0.71 with respect to MFM",[3]; [4],detected (≥0.05% Peak Area; detected above the 0.05% cutoff)
same,"Degradant peak, RRT 0.79 with respect to MFM",[3]; [4],detected (≥0.05% Peak Area; detected above the 0.05% cutoff)
same,"Degradant peak, RRT 1.07 with respect to MFM",[3]; [4],detected (≥0.05% Peak Area; detected above the 0.05% cutoff)
same,"Degradant peak, RRT 0.87* with respect to MFM",[3]; [4],detected (≥0.05% Peak Area; detected above the 0.05% cutoff)
same,"Degradant peak, RRT 0.96* with respect to MFM",[3]; [4],detected (≥0.05% Peak Area; detected above the 0.05% cutoff)
same,"Degradant peak, RRT 1.12* with respect to MFM",[3]; [4],detected (≥0.05% Peak Area; detected above the 0.05% cutoff)
same,"Degradant peak, RRT 0.61 with respect to MFM",[3]; [5],—
same,"Degradant peak, RRT 0.71 with respect to MFM",[3]; [5],—
same,"Degradant peak, RRT 0.79 with respect to MFM",[3]; [5],—
same,"Degradant peak, RRT 1.07 with respect to MFM",[3]; [5],detected (≥0.05% Peak Area; detected above the 0.05% cutoff)
same,"Degradant peak, RRT 0.87* with respect to MFM",[3]; [5],—
same,"Degradant peak, RRT 0.96* with respect to MFM",[3]; [5],detected (≥0.05% Peak Area; detected above the 0.05% cutoff)
same,"Degradant peak, RRT 1.12* with respect to MFM",[3]; [5],detected (≥0.05% Peak Area; detected above the 0.05% cutoff)
same,"Degradant peak, RRT 0.61 with respect to MFM",[3]; [6],—
same,"Degradant peak, RRT 0.71 with respect to MFM",[3]; [6],—
same,"Degradant peak, RRT 0.79 with respect to MFM",[3]; [6],—
same,"Degradant peak, RRT 1.07 with respect to MFM",[3]; [6],—
same,"Degradant peak, RRT 0.87* with respect to MFM",[3]; [6],—
same,"Degradant peak, RRT 0.96* with respect to MFM",[3]; [6],detected (≥0.05% Peak Area; detected above the 0.05% cutoff)
same,"Degradant peak, RRT 1.12* with respect to MFM",[3]; [6],—
same,"Degradant peak, RRT 0.61 with respect to MFM",[3]; [7],—
same,"Degradant peak, RRT 0.71 with respect to MFM",[3]; [7],—
same,"Degradant peak, RRT 0.79 with respect to MFM",[3]; [7],—
same,"Degradant peak, RRT 1.07 with respect to MFM",[3]; [7],—
same,"Degradant peak, RRT 0.87* with respect to MFM",[3]; [7],—
same,"Degradant peak, RRT 0.96* with respect to MFM",[3]; [7],detected (≥0.05% Peak Area; detected above the 0.05% cutoff)
same,"Degradant peak, RRT 1.12* with respect to MFM",[3]; [7],—
same,"Degradant peak, RRT 0.61 with respect to MFM",[3]; [8],—
same,"Degradant peak, RRT 0.71 with respect to MFM",[3]; [8],—
same,"Degradant peak, RRT 0.79 with respect to MFM",[3]; [8],—
same,"Degradant peak, RRT 1.07 with respect to MFM",[3]; [8],—
same,"Degradant peak, RRT 0.87* with respect to MFM",[3]; [8],—
same,"Degradant peak, RRT 0.96* with respect to MFM",[3]; [8],—
same,"Degradant peak, RRT 1.12* with respect to MFM",[3]; [8],—
same,Actual Amount,"[3]; Acid (0.1N HCl, 1 hour)",240.289 µg/mL
same,Actual Amount,"[3]; Base (0.1N NaOH, 1 hour)",6.091 µg/mL
same,Actual Amount,[3]; Control,254.279 µg/mL
same,Actual Amount,[3]; Heat (60° C./5 days),249.211 µg/mL
same,Actual Amount,"[3]; Light (white light, 5 days)",249.916 µg/mL
same,Actual Amount,"[3]; Peroxide (3% H2O2, 1 hour)",262.576 µg/mL
same,"Degradant peak, RRT 0.61 with respect to MFM","[3]; neat material, 4° C. (Control)",—
same,"Degradant peak, RRT 0.71 with respect to MFM","[3]; neat material, 4° C. (Control)",—
same,"Degradant peak, RRT 0.79 with respect to MFM","[3]; neat material, 4° C. (Control)",—
same,"Degradant peak, RRT 1.07 with respect to MFM","[3]; neat material, 4° C. (Control)",—
same,"Degradant peak, RRT 0.87* with respect to MFM","[3]; neat material, 4° C. (Control)",—
same,"Degradant peak, RRT 0.96* with respect to MFM","[3]; neat material, 4° C. (Control)",detected (≥0.05% Peak Area; detected above the 0.05% cutoff)
same,"Degradant peak, RRT 1.12* with respect to MFM","[3]; neat material, 4° C. (Control)",—

# From US20230277452A1, “COMPOSITIONS, DEVICES AND METHODS FOR TREATING NASAL, OTIC AND OTHER TISSUE INFECTION AND/OR INFLAMMATION” (priority 2020, published 2023)
